# Tests used:
# [1] = tested on: patients with ALS; experiment: BENEFIT-ALS clinical trial: muscle strength mega-score; assay type: in vivo, human; details: for Muscle strength mega-score change from baseline (LS mean): based on percent change from baseline across several muscle groups
# Method: BENEFIT-ALS was a multi-national, randomized, stratified, double-blind, placebo-controlled, parallel-group study of tirasemtiv in patients with ALS. The study consisted of a screening period, an open-label/lead-in period, and a double-blind treatment period. Following screening, eligible patients received open-label tirasemtiv, 125 mg BID, for 7 days. Patients who tolerated the 7-day lead-in period were randomized in a 1:1 ratio to tirasemtiv or placebo. Over the first 3 weeks of double-blind treatment, patients randomized to tirasemtiv had their TDD up-titrated as follows: 250 mg for 7 days, then 375 mg for 7 days, then 500 mg for 7 days. […] However, in such cases, dose escalation was re-attempted at least one additional time. The highest tolerable tirasemtiv dose for each individual patient was the dose that patient received for the remaining 9 weeks (i.e., the maximum tolerated dose [MTD] phase) of the study. Patients randomized to placebo underwent a corresponding dummy dose titration.
# Randomization was stratified by riluzole use. […] Clinical assessments occurred every 4 weeks during double-blind treatment; patients also returned for follow-up evaluations at 1 and 4 weeks after their final dose of double-blind study medication (FIG. 1).
# The secondary objectives included assessments of the effect of tirasemtiv versus placebo on measures of respiratory function (Maximum Voluntary Ventilation (MVV), Sniff Nasal Inspiratory Pressure (SNIP), SVC) and skeletal muscle function including handgrip fatigue and muscle-strength mega-score (i.e., the average z-score for muscle strength measurements across the following tested bilateral muscle groups: elbow flexion, wrist extension, knee extension, ankle dorsiflexion, and handgrip)). Secondary endpoints included the changes from baseline in each of the above mentioned measures (MVV, SNIP, SVC, and muscle-strength mega-score) for the Modified FAS, and the slope of each of the measures from baseline to Week 12 for the Modified FAS.
# Eligible patients were males and females, 18 years of age and older, with a diagnosis of familial or sporadic ALS and meeting the World Federation of Neurology El Escorial criteria of definite ALS, probable ALS, laboratory-supported probable ALS, or possible ALS. Patients were to have an upright SVC>50% of predicted for age, height, and sex, a diminished, but measurable, maximum voluntary grip strength in at least one hand (i.e., between 10-50 pounds for females and 10-70 pounds for males), and at least 4 of the 12 ALSFRS-R questions were to have been scored as a 2 or 3. Patients were to be able to swallow tablets without crushing, and in the opinion of the investigator, were expected to do so for the duration of the study. If the patient needed a caregiver, the caregiver was to be able to observe the patient's status. Clinical laboratory results were to be either within their respective normal ranges or if outside the normal range, deemed not clinically significant by the investigator. […] Patients not taking riluzole prior to study entry were not permitted to take riluzole at any dose during the course of the study.
# Safety data presented were based on the safety analysis set, defined as all patients who received at least 1 dose of double-blind study drug. Of the 605 randomized patients, 596 (295 placebo, 301 tirasemtiv) received at least 1 dose of double-blind study drug and were included in the safety analysis set. Data for the primary and secondary efficacy endpoints were analyzed with the Modified FAS. This analysis set included all patients who received at least 1 dose of double-blind study drug and had at least 1 efficacy assessment during the double-blind treatment period, and excluded 156 patients who were randomized in blocks containing patients affected by a study drug assignment error in which 58 patients randomized to and treated with double-blind tirasemtiv were dispensed double-blind placebo instead. […]
# [2] = tested on: fast skeletal muscle troponin complex; details: cited from earlier work
compound,measurement,setting,value
"C#Cc1cnc2nc(O)n(C(CC)CC)c2n1 [Tirasemtiv, 6-ethynyl-1-(pentan-3-yl)-1H-imidazo[4,5-b]pyrazin-2(3H)one]",Muscle strength mega-score slope from baseline to Week 12,[1]; Modified FAS N=178,−0.1104
same,Muscle strength mega-score change from baseline (LS mean),[1]; Week 4,−4.36
same,Muscle strength mega-score change from baseline (LS mean),[1]; Week 8,−7.43
same,Muscle strength mega-score change from baseline (LS mean),[1]; Week 12,−10.78
same,Muscle strength mega-score difference in slope (tirasemtiv vs placebo),[1]; p=0.0158,0.1647
same,"Muscle strength mega-score decline versus placebo, in words",[1]; p=0.0158 for the difference in slope,declined more slowly
same,Activity on fast skeletal muscle troponin complex,[2],highly selective activator
same,Rate of calcium release from fast skeletal TnC,[2],slows the rate of calcium release
